Experimental data taken from patent US7432257B2, “Piperdinyl-phenoxazine and phenothiazine derivatives as δ-opioid modulators” (Janssen Pharmaceutica N.V., priority 2005, dated 2008).

What was measured:
delta opioid receptor = biological target: T1, delta opioid receptor (Rattus norvegicus, UniProt P33533); experiment: Rat Brain Delta Opioid Receptor Binding Assay; conditions: rat forebrain membranes; [3H]DPDPE or [3H]naltrindole, 25° C., 2.5 h
T1 construct: from tissue; host or cells: Forebrain of male Wistar rats, particulate membrane preparation
T1 sequence (P33533 whole entry): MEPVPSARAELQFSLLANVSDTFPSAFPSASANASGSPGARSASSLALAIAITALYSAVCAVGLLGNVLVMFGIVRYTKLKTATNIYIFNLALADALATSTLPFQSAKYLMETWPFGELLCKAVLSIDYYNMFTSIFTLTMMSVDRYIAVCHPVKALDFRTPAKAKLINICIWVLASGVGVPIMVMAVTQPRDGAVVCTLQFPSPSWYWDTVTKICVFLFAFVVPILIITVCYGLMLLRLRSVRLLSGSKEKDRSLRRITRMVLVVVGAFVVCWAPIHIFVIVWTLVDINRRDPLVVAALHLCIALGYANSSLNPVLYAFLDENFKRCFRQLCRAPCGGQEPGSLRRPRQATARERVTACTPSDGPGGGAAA

mu opioid receptor = biological target: T2, mu opioid receptor (Rattus norvegicus, UniProt P33535); experiment: Rat Brain Mu Opioid Receptor Binding Assay; conditions: rat forebrain membranes; [3H]DAMGO, 25° C., 2.5 h
T2 construct: from tissue; host or cells: Forebrain of male Wistar rats, particulate membrane preparation
T2 sequence (P33535 whole entry): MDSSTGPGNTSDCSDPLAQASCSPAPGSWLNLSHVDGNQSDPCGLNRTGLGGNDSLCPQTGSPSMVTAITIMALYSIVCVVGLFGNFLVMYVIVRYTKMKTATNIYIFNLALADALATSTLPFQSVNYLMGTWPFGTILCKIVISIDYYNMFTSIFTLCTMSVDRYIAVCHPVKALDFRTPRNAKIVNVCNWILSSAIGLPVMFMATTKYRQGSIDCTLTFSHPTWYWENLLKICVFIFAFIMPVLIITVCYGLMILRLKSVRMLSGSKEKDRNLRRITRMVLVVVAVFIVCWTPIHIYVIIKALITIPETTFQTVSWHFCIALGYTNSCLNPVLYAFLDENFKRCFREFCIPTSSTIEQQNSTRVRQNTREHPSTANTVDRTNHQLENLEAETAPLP

[1] = biological target: T3, delta opioid receptor (NG108-15 cell membranes) (Mus musculus, UniProt P32300); experiment: [35S]GTPγS Binding Assay in NG108-15 Cell Membranes (Delta Opioid); assay type: biochemical
T3 construct: NG108-15 cell membranes were purchased from Applied Cell Sciences (Rockville, Md.); host or cells: NG108-15 cell membranes (purchased)
T3 sequence (P32300 whole entry): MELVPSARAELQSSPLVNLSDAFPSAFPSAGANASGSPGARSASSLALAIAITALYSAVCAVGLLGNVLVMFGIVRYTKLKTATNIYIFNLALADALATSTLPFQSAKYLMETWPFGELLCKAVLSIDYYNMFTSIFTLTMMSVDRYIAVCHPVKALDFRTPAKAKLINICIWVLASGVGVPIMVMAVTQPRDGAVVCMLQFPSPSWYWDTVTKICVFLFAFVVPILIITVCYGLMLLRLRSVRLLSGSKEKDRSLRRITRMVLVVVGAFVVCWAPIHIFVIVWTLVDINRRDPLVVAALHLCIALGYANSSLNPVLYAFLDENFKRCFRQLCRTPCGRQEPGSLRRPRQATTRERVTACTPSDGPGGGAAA

[2] = biological target: hMOR (CHO-hMOR cell membranes) (Homo sapiens, UniProt P35372); experiment: [35S]GTPγS Binding Assays in CHO-hMOR Cell Membranes; assay type: biochemical; conditions: read-out: mu GTPγS EC50
hMOR (CHO-hMOR cell membranes), sequence (P35372 whole entry): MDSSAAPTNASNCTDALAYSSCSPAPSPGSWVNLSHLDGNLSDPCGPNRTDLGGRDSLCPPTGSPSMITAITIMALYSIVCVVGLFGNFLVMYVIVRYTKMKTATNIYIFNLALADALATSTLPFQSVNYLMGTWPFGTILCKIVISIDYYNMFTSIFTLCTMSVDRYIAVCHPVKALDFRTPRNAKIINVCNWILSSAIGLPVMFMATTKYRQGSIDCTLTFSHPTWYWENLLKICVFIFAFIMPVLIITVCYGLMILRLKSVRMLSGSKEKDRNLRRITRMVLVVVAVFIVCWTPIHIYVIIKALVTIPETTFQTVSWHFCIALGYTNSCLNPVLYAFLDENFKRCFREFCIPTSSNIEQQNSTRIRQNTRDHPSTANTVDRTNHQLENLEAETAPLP

SMILES | Ki (delta opioid receptor) [nM] | Ki (mu opioid receptor) [nM] | EC50 [1] [nM] | EC50 [2] [nM]
O=C(c1ccc2c(c1)Oc1ccccc1N2C1CCN(Cc2ccoc2)CC1)N1CC[C@H](O)C1 [Compound 16r, [10-(1-Furan-3-ylmethyl-piperidin-4-yl)-10H-phenoxazin-3-yl]-(3-(S)-Hydroxypyrrolidin-1-yl)-methanone] | 189 |  |  | 
CCN(CC)C(=O)c1ccc2c(c1)Oc1ccccc1N2C1CCN(Cc2ccoc2)CC1 [Compound 10r, 10-(1-Furan-3-ylmethyl-piperidin-4-yl)-10H-phenoxazine-3-carboxylic acid diethylamide] | 655 |  |  | 
c1ccc(CN2CCC(N3c4ccccc4Sc4cc(-c5cccnc5)ccc43)CC2)nc1 [Compound 2f, 3-Pyridin-3-yl-10-(1-pyridin-2-ylmethyl-piperidin-4-yl)-10H-phenothiazine] | 365 | 2850 |  | 
COc1cccc2c1Oc1cc(C(=O)N(C)C)ccc1N2C1CCN(Cc2ccccc2)CC1 [Compound 5d, 10-(1-Benzyl-piperidin-4-yl)-6-methoxy-10H-phenoxazine-3-carboxylic acid dimethylamide] | 374 |  |  | 
CC(=O)Nc1ccccc1-c1ccc2c(c1)Oc1ccccc1N2C1CCN(Cc2ncc[nH]2)CC1 [Compound 7j, N-(2-{10-[1-(1H-Imidazol-2-ylmethyl)-piperidin-4-yl]-10H-phenoxazin-3-yl}-phenyl)-acetamide] | 249 |  |  | 
NC(=O)c1ccc2c(c1)Oc1ccccc1N2C1CCNCC1 [Compound 12a, 10-Piperidin-4-yl-10H-phenoxazine-3-carboxylic Acid amide] | 682 | 1240 | 9250 | > 10000
CC(=O)Nc1ccccc1-c1ccc2c(c1)Oc1ccccc1N2C1CCN(Cc2ccccc2)CC1 [Compound 5h, N-{2-[10-(1-Benzyl-piperidin-4-yl)-10H-phenoxazin-3-yl]-phenyl}-acetamide] | 400 | 3320 |  | 
c1ccc(CN2CCC(N3c4ccccc4Oc4cc(-c5ccncc5)ccc43)CC2)nc1 [Compound 5k, 3-Pyridin-4-yl-10-(1-pyridin-2-ylmethyl-piperidin-4-yl)-10H-phenoxazine] | 1200 |  |  | 
c1ccc2c(c1)Oc1cc(-c3nnn[nH]3)ccc1N2C1CCN(Cc2ncc[nH]2)CC1 [Compound 7a, 10-[1-(1H-Imidazol-2-ylmethyl)-piperidin-4-yl]-3-(1H-tetrazol-5-yl)-10H-phenoxazine] | 655 | 2770 |  | 
c1ccc(CN2CCC(N3c4ccccc4Oc4cc(-c5nnn[nH]5)ccc43)CC2)nc1 [Compound 10a, 10-(1-Pyridin-2-ylmethyl-piperidin-4-yl)-3-(1H-tetrazol-5-yl)-10H-phenoxazine] | 227 |  |  | 
CC(=O)Nc1ccccc1-c1ccc2c(c1)Oc1ccccc1N2C1CCN(Cc2ccoc2)CC1 [Compound 3j, N-{2-[10-(1-Furan-3-ylmethyl-piperidin-4-yl)-10H-phenoxazin-3-yl]-phenyl}-acetamide] | 2280 |  |  | 
Oc1cccc2c1Oc1cc(-c3ccncc3)ccc1N2C1CCNCC1 (single isomer, unassigned) [Compound 4p, 10-Piperidin-4-yl-7-pyridin-4-yl-10H-phenoxazin-4-ol] | 535 |  |  | 
CCNC(=O)c1ccc2c(c1)Sc1ccccc1N2C1CCN(Cc2cccs2)CC1 [Compound 4m, 10-(1-Thiophen-2-ylmethyl-piperidin-4-yl)-10H-phenothiazine-3-carboxylic acid ethylamide] | 784 |  |  | 
CC(=O)Nc1ccccc1-c1ccc2c(c1)Sc1ccccc1N2C1CCN(Cc2ccccn2)CC1 [Compound 6g, N-{2-[10-(1-Pyridin-2-ylmethyl-piperidin-4-yl)-10H-phenothiazin-3-yl]-phenyl}-acetamide] | 255 | 837 |  | 
COc1cccc2c1Oc1cc(-c3ccncc3)ccc1N2C1CCNCC1 (single isomer, unassigned) [Compound 5p, 6-Methoxy-10-piperidin-4-yl-3-pyridin-4-yl-10H-phenoxazine] | 589 |  |  | 
O=C(c1ccc2c(c1)Oc1ccccc1N2C1CCN(Cc2ccccc2)CC1)N1CC[C@H](O)C1 [Compound 13r, [10-(1-Benzyl-piperidin-4-yl)-10H-phenoxazin-3-yl]-(3-(S)-Hydroxypyrrolidin-1-yl)-methanone] | 465 |  |  | 
N#Cc1ccc2c(c1)Oc1ccccc1N2C1CCNCC1 [Compound 11a, 10-Piperidin-4-yl-10H-phenoxazine-3-carbonitrile] | 436 | 5820 | 1930 | > 10000
O=C(c1ccc2c(c1)Oc1ccccc1N2C1CCN(Cc2ccccn2)CC1)N1CC[C@H](O)C1 [Compound 15r, (3-(S)-Hydroxypyrrolidin-1-yl)-[10-(1-pyridin-2-ylmethyl-piperidin-4-yl)-10H-phenoxazin-3-yl]-methanone] | 203 |  |  | 
CCN(CC)C(=O)c1ccc2c(c1)Oc1ccccc1N2C1CCN(Cc2nccs2)CC1 [Compound 9r, 10-(1-Thiazol-2-ylmethyl-piperidin-4-yl)-10H-phenoxazine-3-carboxylic acid diethylamide] | 300 |  |  | 
CC(=O)Nc1ccccc1-c1ccc2c(c1)Oc1ccccc1N2C1CCN(Cc2ccccn2)CC1 [Compound 5j, N-{2-[10-(1-Pyridin-2-ylmethyl-piperidin-4-yl)-10H-phenoxazin-3-yl]-phenyl}-acetamide] | 576 |  |  | 
